Measured values taken from patent publication US20250171457A1, “NITROGEN-CONTAINING HETEROCYCLIC COMPOUND HAVING NRF2 ACTIVATION EFFECT” (CHUGAI SEIYAKU KABUSHIKI KAISHA, priority 2022, published 2025).

Tested on: Nrf2 transcriptional activity (pARE-Luc reporter) in HepG2 cells
Test: In vitro Nrf2 transcriptional activity measurement by ARE-dependent reporter assay in HepG2 cell
Assay type: cell-based, human
Details: Homo sapiens; HepG2 cells transfected with pARE-Luc, 4 hours at 37° C.; luciferase activity of Example 1-54 or Example 17-23 at 3.75 μM defined as 100%
Summary of the method: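 Luminescence readout (Bright-Glo) after 4 h, 37° C compound exposure of HepG2 cells carrying the ARE-luciferase vector pGL4.37. Each well converted to % response versus reference compound at 3.75 μM, and EC50 derived from dose-response curves.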

Structure (SMILES) | EC50 [nM]
O=C(O)c1cc(F)c(-c2cccc3c2OCN(C(=O)c2c(Cl)cc(N4CCNC5(CC5)C4)cc2Cl)C3)cc1N1C2CCC1COC2 [Compound 4-11, 4-[3-[2,6-Dichloro-4-(4,7-diazaspiro[2.5]octan-7-yl)benzoyl]-2,4-dihydro-1,3-benzoxazin-8-yl]-5-fluoro-2-(3-oxa-8-azabicyclo[3.2.1]octan-8-yl)benzoic acid] | 25
O=C(O)c1cc(F)c(-c2cccc3c2OCN(C(=O)c2ccc(N4CC5(COC5)C4)cc2Cl)C3)cc1N1CCOCC1 [Compound 4-33, 4-[3-[2-Chloro-4-(2-oxa-6-azaspiro[3.3]heptan-6-yl)benzoyl]-2,4-dihydro-1,3-benzoxazin-8-yl]-5-fluoro-2-morpholin-4-ylbenzoic acid] | 5.1
Cn1cc(-c2cc(Cl)c(C(=O)N3Cc4cccc(-c5ccc(C(=O)O)c(N6CCOCC6)c5)c4CN3)c(Cl)c2)cn1 [Compound 13-2, 4-[2-[2,6-Dichloro-4-(1-methylpyrazol-4-yl)benzoyl]-3,4-dihydro-1H-phthalazin-5-yl]-2-morpholin-4-ylbenzoic acid] | 18
O=C(O)c1ccc(-c2cccc3c2C(=O)NN(C(=O)c2c(Cl)cc(N4CCN(C5CC5)CC4)cc2Cl)C3)cc1N1CCOCC1 [Compound 1-75, 4-[2-[2,6-Dichloro-4-(4-cyclopropylpiperazin-1-yl)benzoyl]-4-oxo-1,3-dihydrophthalazin-5-yl]-2-morpholin-4-ylbenzoic acid] | 8
CN1CC2(C1)CN(c1cc(Cl)c(C(=O)N3COc4c(cccc4-c4cc(N5CCOCC5)c(C(=O)O)cc4F)C3)c(Cl)c1)C2 [Compound 10-12, 4-[3-[2,6-Dichloro-4-(6-methyl-2,6-diazaspiro[3.3]heptan-2-yl)benzoyl]-2,4-dihydro-1,3-benzoxazin-8-yl]-5-fluoro-2-morpholin-4-ylbenzoic acid] | 1.2
CN1C[C@@H]2C[C@H]1CN2c1cc(Cl)c(C(=O)N2COc3c(cccc3-c3cc(N4C5CCC4COC5)c(C(=O)O)cc3F)C2)c(Cl)c1 [Compound 10-10, 4-[3-[2,6-Dichloro-4-[(1S,4S)-5-methyl-2,5-diazabicyclo[2.2.1]heptan-2-yl]benzoyl]-2,4-dihydro-1,3-benzoxazin-8-yl]-5-fluoro-2-(3-oxa-8-azabicyclo[3.2.1]octan-8-yl)benzoic acid] | 25
CN1CCC2(C1)CN(c1cc(Cl)c(C(=O)N3COc4c(cccc4-c4cc(N5C6CCC5COC6)c(C(=O)O)cc4F)C3)c(Cl)c1)C2 [Compound 10-1, 4-[3-[2,6-Dichloro-4-(7-methyl-2,7-diazaspiro[3.4]octan-2-yl)benzoyl]-2,4-dihydro-1,3-benzoxazin-8-yl]-5-fluoro-2-(3-oxa-8-azabicyclo[3.2.1]octan-8-yl)benzoic acid] | 6.5
O=C(O)c1ccc(-c2cccc3c2OCN(C(=O)c2c(Cl)cc(N4CCC(N5CCOCC5)CC4)cc2Cl)C3)nc1N1CCCCC1 [Compound 18-10, 6-[3-[2,6-Dichloro-4-(4-morpholin-4-ylpiperidin-1-yl)benzoyl]-2,4-dihydro-1,3-benzoxazin-8-yl]-2-piperidin-1-ylpyridine-3-carboxylic acid] | 36
Cn1cc(Oc2cc(Cl)c(C(=O)N3COc4c(cccc4-c4cc(N5CCOCC5)c(C(=O)O)cc4F)C3)c(Cl)c2)cn1 [Compound 4-46, 4-[3-[2,6-Dichloro-4-(1-methylpyrazol-4-yl)oxybenzoyl]-2,4-dihydro-1,3-benzoxazin-8-yl]-5-fluoro-2-morpholin-4-ylbenzoic acid] | 14
CC(C)(O)Cn1cc(-c2cc(Cl)c(C(=O)N3COc4c(cccc4-c4ccc(C(=O)O)c(N5CCOCC5)c4)C3)c(Cl)c2)cn1 [Compound 15-1, 4-[3-[2,6-Dichloro-4-[1-(2-hydroxy-2-methylpropyl)pyrazol-4-yl]benzoyl]-2,4-dihydro-1,3-benzoxazin-8-yl]-2-morpholin-4-ylbenzoic acid] | 4.9
CC(C)(C#N)CN1CC2(C1)CN(c1cc(Cl)c(C(=O)N3COc4c(cccc4-c4cc(N5C6CCC5COC6)c(C(=O)O)cc4F)C3)c(Cl)c1)C2 [Compound 7-7, 4-[3-[2,6-Dichloro-4-[6-(2-cyano-2-methylpropyl)-2,6-diazaspiro[3.3]heptan-2-yl]benzoyl]-2,4-dihydro-1,3-benzoxazin-8-yl]-5-fluoro-2-(3-oxa-8-azabicyclo[3.2.1]octan-8-yl)benzoic acid] | 3.4
Cn1cc(-c2cc(Cl)c(C(=O)N3COc4c(cccc4-c4ccc(C(=O)O)c(N5CCOCC5)c4F)C3)c(Cl)c2)cn1 [Compound 13-5, 4-[3-[2,6-Dichloro-4-(1-methylpyrazol-4-yl)benzoyl]-2,4-dihydro-1,3-benzoxazin-8-yl]-3-fluoro-2-morpholin-4-ylbenzoic acid] | 16
Cn1cc2nc(-c3cc(Cl)c(C(=O)N4COc5c(cccc5-c5cc(N6C7CCC6COC7)c(C(=O)O)cc5F)C4)c(Cl)c3)ccc2n1 [Compound 3-13, 4-[3-[2,6-Dichloro-4-(2-methylpyrazolo[4,3-b]pyridin-5-yl)benzoyl]-2,4-dihydro-1,3-benzoxazin-8-yl]-5-fluoro-2-(3-oxa-8-azabicyclo[3.2.1]octan-8-yl)benzoic acid] | 9.7
O=C(O)c1cc(F)c(-c2cccc3c2OCN(C(=O)c2c(Cl)cc(N4CC5CCC(C4)N5C4COC4)cc2Cl)C3)cc1N1C2CCC1COC2 [Compound 9-17, 4-[3-[2,6-Dichloro-4-[8-(oxetan-3-yl)-3,8-diazabicyclo[3.2.1]octan-3-yl]benzoyl]-2,4-dihydro-1,3-benzoxazin-8-yl]-5-fluoro-2-(3-oxa-8-azabicyclo[3.2.1]octan-8-yl)benzoic acid] | 7.5
COCCN1CCN(c2cc(Cl)c(C(=O)N3COc4c(cccc4-c4cc(N5C6CCC5COC6)c(C(=O)O)cc4F)C3)c(Cl)c2)CC1(C)C [Compound 8-3, 4-[3-[2,6-Dichloro-4-[4-(2-methoxyethyl)-3,3-dimethylpiperazin-1-yl]benzoyl]-2,4-dihydro-1,3-benzoxazin-8-yl]-5-fluoro-2-(3-oxa-8-azabicyclo[3.2.1]octan-8-yl)benzoic acid] | 2.6
COCC1(OC)CN(c2cc(Cl)c(C(=O)N3COc4c(cccc4-c4cc(N5C6CCC5COC6)c(C(=O)O)cc4F)C3)c(Cl)c2)C1 [Compound 6-1, 4-[3-[2,6-Dichloro-4-[3-methoxy-3-(methoxymethyl)azetidin-1-yl]benzoyl]-2,4-dihydro-1,3-benzoxazin-8-yl]-5-fluoro-2-(3-oxa-8-azabicyclo[3.2.1]octan-8-yl)benzoic acid] | 2.1
COC1CC2(C1)CN(c1cc(Cl)c(C(=O)N3COc4c(cccc4-c4cc(N5CC6CCC(C5)O6)c(C(=O)O)cc4F)C3)c(Cl)c1)C2 [Compound 4-56, 4-[3-[2,6-Dichloro-4-(6-methoxy-2-azaspiro[3.3]heptan-2-yl)benzoyl]-2,4-dihydro-1,3-benzoxazin-8-yl]-5-fluoro-2-(8-oxa-3-azabicyclo[3.2.1]octan-3-yl)benzoic acid] | 1.9
O=C(O)c1cc(F)c(-c2cccc3c2OCN(C(=O)c2c(Cl)cc(N4CC(N5CC(F)C5)C4)cc2Cl)C3)cc1N1C2CCC1COC2 [Compound 11-9, 4-[3-[2,6-Dichloro-4-[3-(3-fluoroazetidin-1-yl)azetidin-1-yl]benzoyl]-2,4-dihydro-1,3-benzoxazin-8-yl]-5-fluoro-2-(3-oxa-8-azabicyclo[3.2.1]octan-8-yl)benzoic acid] | 2.7
